# Laboratory results from patent US10112899B2 (ViiV HEALTHCARE UK LIMITED, priority 2014, dated 2018).
# pIC50: −log10 of the molar value.
# System: HIV in the HTLV-1 transformed cell line MT-4
# Assay: organism not typed
# Type: cell-based
# Conditions: MT-4 cells, luciferase/cell titer glo readout after 96 hours, 10 point dose response
SMILES,"pIC50 (MT4, 96 h)",pIC50
"Cc1ccc(-c2c(C)c3c(c(C)c2[C@H](OC(C)(C)C)C(=O)O)CN(C(=O)NC2CCCCC2)C3)cc1 [Example 4, (S)-2-(tert-Butoxy)-2-(2-(cyclohexylcarbamoyl)-4,7-dimethyl-6-(p-tolyl)isoindolin-5-yl)acetic acid]",7.48,
"Cc1ccc(-c2c(C)c3c(c(C)c2C(OC(C)(C)C)C(=O)O)CN(S(=O)(=O)c2cccc4ccccc24)C3)cc1 (stereo not shown) [Example 5, 2-(tert-Butoxy)-2-(4,7-dimethyl-2-(naphthalen-1-ylsulfonyl)-6-(p-tolyl)isoindolin-5-yl)acetic acid]",,7.38
"Cc1ccc(-c2c(C)c3c(c(C)c2[C@H](OC(C)(C)C)C(=O)O)CN(C(=O)N2CCCCC2)C3)cc1 [Example 7, (S)-2-(tert-butoxy)-2-(4,7-dimethyl-2-(piperidine-1-carbonyl)-6-(p-tolyl)isoindolin-5-yl)acetic acid]",8.40,
"Cc1ccc(-c2c(C)c3c(c(C)c2C(OC(C)(C)C)C(=O)O)CN(Cc2ccccc2)C3)cc1 (stereo not shown) [Example 9, 2-(2-Benzyl-4,7-dimethyl-6-(p-tolyl)isoindolin-5-yl)-2-(tert-butoxy)acetic acid]",7.01,
"Cc1ccc(-c2c(C)c3c(c(C)c2C(OC(C)(C)C)C(=O)O)CN(CC2CCCCC2)C3)cc1 (stereo not shown) [Example 10, 2-(tert-butoxy)-2-(2-(cyclohexylmethyl)-4,7-dimethyl-6-(p-tolyl)isoindolin-5-yl)acetic acid]",7.15,
"Cc1ccc(-c2c(C)c3c(c(C)c2[C@H](OC(C)(C)C)C(=O)O)CN(Cc2ccncc2)C3)cc1 [Example 11, (S)-2-(tert-butoxy)-2-(4,7-dimethyl-2-(pyridin-4-ylmethyl)-6-(p-tolyl)isoindolin-5-yl)acetic acid]",6.76,
"Cc1ccc(-c2c(C)c3c(c(C)c2[C@H](OC(C)(C)C)C(=O)O)CN(CC2CCOCC2)C3)cc1 [Example 12, (S)-2-(tert-butoxy)-2-(4,7-dimethyl-2-((tetrahydro-2H-pyran-4-yl)methyl)-6-(p-tolyl)isoindolin-5-yl)acetic acid]",6.09,
"Cc1ccc(-c2c(C)c3c(c(C)c2[C@H](OC(C)(C)C)C(=O)O)CN(Cc2cccc4ccccc24)C3)cc1 [Example 13, (S)-2-(tert-Butoxy)-2-(4,7-dimethyl-2-(naphthalen-1-ylmethyl)-6-(p-tolyl)isoindolin-5-yl)acetic acid]",7.36,
"Cc1ccc(-c2c(C)c3c(c(C)c2[C@H](OC(C)(C)C)C(=O)O)CN(C2CCC(C)(C)CC2)C3)cc1 [Example 14, (S)-2-(tert-Butoxy)-2-(2-(4,4-dimethylcyclohexyl)-4,7-dimethyl-6-(p-tolyl)isoindolin-5-yl)acetic acid]",6.93,
"Cc1ccc(-c2c(C)c3c(c(C)c2C(OC(C)(C)C)C(=O)O)CN(S(C)(=O)=O)C3)cc1 (stereo not shown) [Example 15, 2-(tert-Butoxy)-2-(4,7-dimethyl-2-(methylsulfonyl)-6-(p-tolyl)isoindolin-5-yl)acetic acid]",5.67,
"Cc1ccc(-c2c(C)c3c(c(C)c2C(OC(C)(C)C)C(=O)O)CN(S(=O)(=O)c2cccc4ccccc24)C3)cc1 (stereo not shown) [Example 16, 2-(tert-Butoxy)-2-(4,7-dimethyl-2-(naphthalen-1-ylsulfonyl)-6-(p-tolyl)isoindolin-5-yl)acetic acid]",7.21,
"Cc1ccc(-c2c(C)c3c(c(C)c2C(OC(C)(C)C)C(=O)O)CN(C(=O)OCc2ccccc2)C3)cc1 (stereo not shown) [Example 17, 2-(2-((Benzyloxy)carbonyl)-4,7-dimethyl-6-(p-tolyl)isoindolin-5-yl)-2-(tert-butoxy)acetic acid]",5.89,
"Cc1ccc(-c2c(C)c3c(c(C)c2[C@H](OC(C)(C)C)C(=O)O)CN(Cc2ccc(Cl)cc2)C3)cc1 [Example 18, (S)-2-(tert-butoxy)-2-(2-(4-chlorobenzyl)-4,7-dimethyl-6-(p-tolyl)isoindolin-5-yl)acetic acid]",7.12,
"COc1ccc(CN2Cc3c(C)c(-c4ccc(C)cc4)c([C@H](OC(C)(C)C)C(=O)O)c(C)c3C2)cc1 [Example 19, (S)-2-(tert-butoxy)-2-(2-(4-methoxybenzyl)-4,7-dimethyl-6-(p-tolyl)isoindolin-5-yl)acetic acid]",6.47,
"Cc1ccc(CN2Cc3c(C)c(-c4ccc(C)cc4)c([C@H](OC(C)(C)C)C(=O)O)c(C)c3C2)cc1 [Example 20, (S)-2-(tert-butoxy)-2-(4,7-dimethyl-2-(4-methylbenzyl)-6-(p-tolyl)isoindolin-5-yl)acetic acid]",6.94,
"Cc1ccc(-c2c(C)c3c(c(C)c2[C@H](OC(C)(C)C)C(=O)O)CN(Cc2ccccc2F)C3)cc1 [Example 21, (S)-2-(tert-butoxy)-2-(2-(2-fluorobenzyl)-4,7-dimethyl-6-(p-tolyl)isoindolin-5-yl)acetic acid]",7.40,
"Cc1ccc(-c2c(C)c3c(c(C)c2[C@H](OC(C)(C)C)C(=O)O)CN(Cc2cccc(F)c2)C3)cc1 [Example 22, (S)-2-(tert-butoxy)-2-(2-(3-fluorobenzyl)-4,7-dimethyl-6-(p-tolyl)isoindolin-5-yl)acetic acid]",7.70,
"Cc1ccc(-c2c(C)c3c(c(C)c2[C@H](OC(C)(C)C)C(=O)O)CN(Cc2nc(C)c[nH]2)C3)cc1 [Example 23, (S)-2-(tert-butoxy)-2-(4,7-dimethyl-2-((4-methyl-1H-imidazol-2-yl)methyl)-6-(p-tolyl)isoindolin-5-yl)acetic acid]",6.69,
"COc1cccc(CN2Cc3c(C)c(-c4ccc(C)cc4)c([C@H](OC(C)(C)C)C(=O)O)c(C)c3C2)c1 [Example 24, (S)-2-(tert-butoxy)-2-(2-(3-methoxybenzyl)-4,7-dimethyl-6-(p-tolyl)isoindolin-5-yl)acetic acid]",7.92,
"Cc1ccc(-c2c(C)c3c(c(C)c2[C@H](OC(C)(C)C)C(=O)O)CN(CC(C)C)C3)cc1 [Example 25, (S)-2-(tert-butoxy)-2-(2-isobutyl-4,7-dimethyl-6-(p-tolyl)isoindolin-5-yl)acetic acid]",6.02,
"Cc1ccc(-c2c(C)c3c(c(C)c2[C@H](OC(C)(C)C)C(=O)O)CN(Cc2ccc(Cl)c(Cl)c2)C3)cc1 [Example 26, (S)-2-(tert-butoxy)-2-(2-(3,4-dichlorobenzyl)-4,7-dimethyl-6-(p-tolyl)isoindolin-5-yl)acetic acid]",7.27,
"Cc1ccc(-c2c(C)c3c(c(C)c2[C@H](OC(C)(C)C)C(=O)O)CN(Cc2ccc(C(F)(F)F)cc2)C3)cc1 [Example 27, (S)-2-(tert-butoxy)-2-(4,7-dimethyl-6-(p-tolyl)-2-(4-(trifluoromethyl)benzyl)isoindolin-5-yl)acetic acid]",6.03,
"Cc1ccc(-c2c(C)c3c(c(C)c2[C@H](OC(C)(C)C)C(=O)O)CN(Cc2cccc(C(F)(F)F)c2)C3)cc1 [Example 28, (S)-2-(tert-butoxy)-2-(4,7-dimethyl-6-(p-tolyl)-2-(3-(trifluoromethyl)benzyl)isoindolin-5-yl)acetic acid]",7.03,
"Cc1ccc(-c2c(C)c3c(c(C)c2[C@H](OC(C)(C)C)C(=O)O)CN(Cc2cccc(-c4ccccc4)c2)C3)cc1 [Example 29, (S)-2-(2-([1,1′-biphenyl]-3-ylmethyl)-4,7-dimethyl-6-(p-tolyl)isoindolin-5-yl)-2-(tert-butoxy)acetic acid]",6.74,
"Cc1ccc(-c2c(C)c3c(c(C)c2[C@H](OC(C)(C)C)C(=O)O)CN(CC2CCCCC2)C3)cc1 [Example 30, (S)-2-(tert-butoxy)-2-(2-(cyclohexylmethyl)-4,7-dimethyl-6-(p-tolyl)isoindolin-5-yl)acetic acid]",7.33,
